In patent US9969775B2, “CGRP antagonist peptides” (Ferring B.V., priority 2015, dated 2018):
Numbered stars: 1 amine (or outer) side, 2 acyl side, 3 side chain; on linkers, the order of the positions; unused ones are H or OH. Bridge positions count the residues as written; N and C are the ends. Square brackets hold non-standard residues; d marks the D form. Peptide text beside a SMILES is read from it. * marks the point of attachment. Phe(3-CONH2) = NC(=O)c1cccc(C[C@H](N)C(=O)O)c1; Phe(2-CONH2) = NC(=O)c1ccccc1C[C@H](N)C(=O)O; X5 = O=C([C@H](Cc1ccc(CO)cc1)N[*:1])[*:2]; Picolinoyl(5-F) = O=C(c1ccc(F)cn1)*; Orn(iPr) = CC(C)NCCC[C@H](N)C(=O)O; Oxazole2carbonyl = O=C(c1ncco1)*; 3Pal = N[C@@H](Cc1cccnc1)C(=O)O; ΔPro = O=C(O)[C@@H]1C=CCN1

Experiments:
[1] = molecular target: T1, hCGRP receptor (CALCRL:RAMP1) (Homo sapiens, UniProt O60894+Q16602); experiment: CGRP receptor antagonist activity measured by cAMP assay (HTRF); format: cell-based; conditions: agonist human α-CGRP; for Emax: % MPE: percent of the maximal possible effect, read-out: hCGRP-R Efficacy Antag (%) Ave; for IC50: GeneBLAzer CALCRL:RAMP1-CRE-bla Freestyle 293F cells, 30 minutes, read-out: hCGRP-R IC50 Ave
T1 construct: host or cells: GeneBLAzer CALCRL:RAMP1-CRE-bla Freestyle 293F

[2] = molecular target: T2, hAM2 receptor (CALCRL:RAMP3) (Homo sapiens, UniProt O60896+Q16602); experiment: AM2 receptor antagonist activity measured by cAMP assay (HTRF); format: cell-based; conditions: for Emax: % MPE: percent of the maximal possible effect, read-out: hAM2-R Efficacy Antag (%) Ave; for Emax / IC50: agonist human adrenomedullin; for IC50: GeneBLAzer CALCRL:RAMP3-CRE-bla Freestyle 293F cells, read-out: hAM2-R IC50 Ave; for selectivity ratio CGRP/AM2: selectivity ratio for hCGRP over hAM2, calculated from the IC50 values
T2 construct: expressed in transfected cells; host or cells: GeneBLAzer CALCRL:RAMP3-CRE-bla Freestyle 293F
T2 sequence (Q16602 23-461): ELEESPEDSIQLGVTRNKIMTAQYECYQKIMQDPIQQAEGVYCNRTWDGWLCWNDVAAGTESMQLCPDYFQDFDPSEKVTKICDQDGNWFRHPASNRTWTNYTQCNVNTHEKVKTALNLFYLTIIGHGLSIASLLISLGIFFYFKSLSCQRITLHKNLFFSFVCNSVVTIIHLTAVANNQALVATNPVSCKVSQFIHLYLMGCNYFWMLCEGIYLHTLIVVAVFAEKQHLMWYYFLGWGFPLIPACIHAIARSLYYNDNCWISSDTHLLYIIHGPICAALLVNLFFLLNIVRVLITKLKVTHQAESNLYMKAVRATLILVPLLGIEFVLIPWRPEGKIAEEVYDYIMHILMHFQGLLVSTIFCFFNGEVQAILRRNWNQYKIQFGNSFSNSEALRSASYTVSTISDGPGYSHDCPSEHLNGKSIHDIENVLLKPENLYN
T2 sequence (O60896 24-148): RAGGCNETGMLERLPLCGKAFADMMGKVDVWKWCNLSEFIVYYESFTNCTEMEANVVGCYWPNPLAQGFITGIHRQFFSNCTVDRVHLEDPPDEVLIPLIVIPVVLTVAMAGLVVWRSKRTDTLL
Experimental: Antagonist activity for the adrenomedullin receptor AM2 was determined using the method described in Example 6 above, with the following modifications. Instead of GeneBLAzer® CALCRL:RAMP1-CRE-bla Freestyle™ 293F cells, GeneBLAzer® CALCRL:RAMP3-CRE-bla Freestyle™ 293F cells were used to test activity at hAM2 receptors. The agonist was human adrenomedullin, instead of α-CGRP.
In Table 5, the selectivity ratio for hCGRP over hAM2 is calculated as hCGRP-R IC50/hAM2-R IC50.

T1 sequence (Q16602 23-461): as the sequence (Q16602 23-461) above
T1 sequence (O60894 27-148): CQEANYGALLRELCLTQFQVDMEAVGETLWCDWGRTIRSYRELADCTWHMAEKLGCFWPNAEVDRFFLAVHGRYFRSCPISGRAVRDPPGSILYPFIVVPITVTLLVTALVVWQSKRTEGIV

SMILES	Emax [1] [%]	IC50 [1] [nM]	Emax [2] [%]	IC50 [2] [nM]	selectivity ratio CGRP/AM2 [2]
CC(C)NCCC[C@@H]1NC(=O)[C@@H](NC(=O)[C@H](Cc2ccccc2C(N)=O)NC(=O)[C@H](NC(=O)c2ccc(F)cn2)C(C)C)CSSC[C@@H](C(=O)N[C@@H](Cc2cccnc2)C(N)=O)NC(=O)[C@H](Cc2ccc(CO)cc2)NC(=O)[C@@H]2C=CCN2C(=O)CNC(=O)[C@H](C(C)C)NC(=O)[C@H](CC(=O)O)NC1=O [Compound 63, Picolinoyl(5-F)-D-Val-Phe(2-Cbm)-c(Cys-Orn(iPr)-Asp-Val-Gly-Dhp-Phe(4-CH2OH)-Cys)-3Pal-NH2] ({Picolinoyl(5-F)}-[dV][Phe(2-CONH2)]C[Orn(iPr)]DVG[ΔPro][X5]C[3Pal]-NH2; disulfide 3-10)	101	0.1	98	85	848
CC(C)NCCC[C@@H]1NC(=O)[C@@H](NC(=O)[C@H](Cc2ccccc2C(N)=O)NC(=O)[C@H](NC(=O)c2ccc(F)cn2)C(C)C)CSSC[C@@H](C(=O)N[C@@H](Cc2cccnc2)C(N)=O)NC(=O)[C@H](Cc2ccccc2C(N)=O)NC(=O)[C@@H]2C=CCN2C(=O)CNC(=O)[C@H](C(C)C)NC(=O)[C@H](CC(=O)O)NC1=O [Compound 66, Picolinoyl(5-F)-D-Val-Phe(2-Cbm)-c(Cys-Orn(iPr)-Asp-Val-Gly-Dhp-Phe(2-Cbm)-Cys)-3Pal-NH2] ({Picolinoyl(5-F)}-[dV][Phe(2-CONH2)]C[Orn(iPr)]DVG[ΔPro][Phe(2-CONH2)]C[3Pal]-NH2; disulfide 3-10)	101	0.08	100	84	1027

More lines, now with the values ahead:

Emax [1] [%]	IC50 [1] [nM]	Emax [2] [%]	IC50 [2] [nM]	selectivity ratio CGRP/AM2 [2]	SMILES
101	0.12	99	1250	10594	CC(C)NCCC[C@@H]1NC(=O)[C@@H](NC(=O)[C@H](Cc2ccccc2C(N)=O)NC(=O)[C@H](NC(=O)c2ncco2)C(C)C)CSSC[C@@H](C(=O)N[C@@H](Cc2cccnc2)C(N)=O)NC(=O)[C@H](Cc2ccc(CO)cc2)NC(=O)[C@@H]2CCCN2C(=O)CNC(=O)[C@H](C(C)C)NC(=O)[C@H](CC(=O)O)NC1=O [Compound 64, Oxazole-2-carbonyl-D-Val-Phe(2-Cbm)-c(Cys-Orn(iPr)-Asp-Val-Gly-Pro-Phe(4-CH2OH)-Cys)-3Pal-NH2] (Oxazole2carbonyl-[dV][Phe(2-CONH2)]C[Orn(iPr)]DVGP[X5]C[3Pal]-NH2; disulfide 3-10)
101	0.06	100	318	5492	CC(C)NCCC[C@@H]1NC(=O)[C@@H](NC(=O)[C@H](Cc2ccccc2C(N)=O)NC(=O)[C@H](NC(=O)c2ncco2)C(C)C)CSSC[C@@H](C(=O)N[C@@H](Cc2cccnc2)C(N)=O)NC(=O)[C@H](Cc2cccc(C(N)=O)c2)NC(=O)[C@@H]2C=CCN2C(=O)CNC(=O)[C@H](C(C)C)NC(=O)[C@H](CC(=O)O)NC1=O [Compound 65, Oxazole-2-carbonyl-D-Val-Phe(2-Cbm)-c(Cys-Orn(iPr)-Asp-Val-Gly-Dhp-Phe(3-Cbm)-Cys)-3Pal-NH2] (Oxazole2carbonyl-[dV][Phe(2-CONH2)]C[Orn(iPr)]DVG[ΔPro][Phe(3-CONH2)]C[3Pal]-NH2; disulfide 3-10)
101	0.09	99	103	1094	CC(C)NCCC[C@@H]1NC(=O)[C@@H](NC(=O)[C@H](Cc2ccc(O)cc2)NC(=O)[C@H](NC(=O)c2ncco2)C(C)C)CSSC[C@@H](C(=O)N[C@@H](Cc2cccnc2)C(N)=O)NC(=O)[C@H](Cc2cccc(C(N)=O)c2)NC(=O)[C@@H]2C=CCN2C(=O)CNC(=O)[C@H](C(C)C)NC(=O)[C@H](CC(=O)O)NC1=O [Compound 67, Oxazole-2-carbonyl-D-Val-Tyr-c(Cys-Orn(iPr)-Asp-Val-Gly-Dhp-Phe(3-Cbm)-Cys)-3Pal-NH2] (Oxazole2carbonyl-[dV]YC[Orn(iPr)]DVG[ΔPro][Phe(3-CONH2)]C[3Pal]-NH2; disulfide 3-10)
